Measured values taken from article PMC5218480 (PLoS ONE, 2017).

Tested on: MV-4-11 cells
Experiment: Gene expression microarray analysis (Affymetrix PrimeView) and GSEA
Assay type: cell-based, human
Design: RFU PODN (11730768_x_at) / Fold change /veh PODN (11730768_x_at) / RFU LINC00158 (11744669_a_at) / Fold change /veh LINC00158 (11744669_a_at) / RFU DUSP10 (11751237_a_at) / Fold change /veh DUSP10 (11751237_a_at) / RFU ID3 (11757404_x_at) / Fold change /veh ID3 (11757404_x_at) / RFU PLEKHG5 (11737974_s_at) / Fold change /veh PLEKHG5 (11737974_s_at) / RFU LRRC4B (11730491_at) / Fold change /veh LRRC4B (11730491_at) / RFU GIMAP4 (11747438_a_at) / Fold change /veh GIMAP4 (11747438_a_at) / RFU KRT8 (11758183_x_at) / Fold change /veh KRT8 (11758183_x_at) / RFU CNN1 (11734310_a_at) / Fold change /veh CNN1 (11734310_a_at) / RFU VPS37D (11726825_at) / Fold change /veh VPS37D (11726825_at) / RFU C10orf10 (11716522_x_at) / Fold change /veh C10orf10 (11716522_x_at) / RFU KIR2DL2 /// KIR2DL4 /// KIR2DL5A /// KIR2DL5B /// KIR2DS1 /// KIR2DS2 /// KIR2DS3 /// KIR2DS4 /// KIR3DL3 /// KIR3DL3 /// KIR3DS1 (11738374_at) / Fold change /veh KIR2DL2 /// KIR2DL4 /// KIR2DL5A /// KIR2DL5B /// KIR2DS1 /// KIR2DS2 /// KIR2DS3 /// KIR2DS4 /// KIR3DL3 /// KIR3DL3 /// KIR3DS1 (11738374_at) / RFU C1QL1 (11718748_at) / Fold change /veh C1QL1 (11718748_at) / RFU TMPRSS4 (11747572_a_at) / Fold change /veh TMPRSS4 (11747572_a_at) / RFU HAMP (11756126_x_at) / Fold change /veh HAMP (11756126_x_at) / RFU RNFT2 (11725882_a_at) / Fold change /veh RNFT2 (11725882_a_at) / RFU NR4A2 (11747474_a_at) / Fold change /veh NR4A2 (11747474_a_at) / RFU ABCC12 (11746883_a_at) / Fold change /veh ABCC12 (11746883_a_at) / RFU TMEM136 (11760407_x_at) / Fold change /veh TMEM136 (11760407_x_at) / RFU CLDN22 /// WWC2 (11732394_at) / Fold change /veh CLDN22 /// WWC2 (11732394_at) / RFU HLA-DPB1 (11760878_x_at) / Fold change /veh HLA-DPB1 (11760878_x_at) / RFU SPINT1 (11716480_a_at) / Fold change /veh SPINT1 (11716480_a_at) / RFU GAP43 (11754022_s_at) / Fold change /veh GAP43 (11754022_s_at) / RFU A4GNT (11735810_at) / Fold change /veh A4GNT (11735810_at) / RFU PRB3 (11715151_x_at) / Fold change /veh PRB3 (11715151_x_at) / RFU TUBB4B (11761932_at) / Fold change /veh TUBB4B (11761932_at) / RFU CAPN14 (11732068_a_at) / Fold change /veh CAPN14 (11732068_a_at) / RFU TMCC2 (11721928_a_at) / Fold change /veh TMCC2 (11721928_a_at) / RFU IRGQ (11745062_a_at) / Fold change /veh IRGQ (11745062_a_at) / RFU FAM174B (11720279_a_at) / Fold change /veh FAM174B (11720279_a_at) / RFU TMPRSS4 (11748680_a_at) / Fold change /veh TMPRSS4 (11748680_a_at) / RFU FAM212B (11763350_a_at) / Fold change /veh FAM212B (11763350_a_at) / RFU PLEKHG5 (11743358_a_at) / Fold change /veh PLEKHG5 (11743358_a_at) / RFU ZSCAN30 (11745921_a_at) / Fold change /veh ZSCAN30 (11745921_a_at) / RFU CMKLR1 (11741424_a_at) / Fold change /veh CMKLR1 (11741424_a_at) / RFU LOC101060620 /// MAPK8IP1 (11723275_at) / Fold change /veh LOC101060620 /// MAPK8IP1 (11723275_at) / RFU SPTSSB (11747773_x_at) / Fold change /veh SPTSSB (11747773_x_at) / RFU PRSS12 (11739890_at) / Fold change /veh PRSS12 (11739890_at) / RFU BIN1 (11741810_x_at) / Fold change /veh BIN1 (11741810_x_at) / RFU WNT11 (11732464_a_at) / Fold change /veh WNT11 (11732464_a_at) / RFU C10orf10 (11716521_a_at) / Fold change /veh C10orf10 (11716521_a_at) / RFU C5orf56 (11738089_at) / Fold change /veh C5orf56 (11738089_at) / RFU CYB561 (11721691_x_at) / Fold change /veh CYB561 (11721691_x_at) / RFU ANKRD19P (11752326_a_at) / Fold change /veh ANKRD19P (11752326_a_at) / RFU OR2T12 /// OR2T33 /// OR2T8 (11738714_s_at) / Fold change /veh OR2T12 /// OR2T33 /// OR2T8 (11738714_s_at) / RFU VCAN (11748164_a_at) / Fold change /veh VCAN (11748164_a_at) / RFU JSRP1 (11732532_at) / Fold change /veh JSRP1 (11732532_at) / RFU KRTAP10-11 (11738290_x_at) / Fold change /veh KRTAP10-11 (11738290_x_at) / RFU MYO3A (11730013_a_at) / Fold change /veh MYO3A (11730013_a_at) / RFU EBF3 (11725865_a_at) / Fold change /veh EBF3 (11725865_a_at) / RFU CAMK2N1 (11719241_x_at) / Fold change /veh CAMK2N1 (11719241_x_at) / RFU C5orf56 (11738088_a_at) / Fold change /veh C5orf56 (11738088_a_at) / RFU OLFML3 (11715873_a_at) / Fold change /veh OLFML3 (11715873_a_at) / RFU LOC100653217 /// NTM (11731650_a_at) / Fold change /veh LOC100653217 /// NTM (11731650_a_at) / RFU MAPK11 (11762145_a_at) / Fold change /veh MAPK11 (11762145_a_at) / RFU FIZ1 (11724087_x_at) / Fold change /veh FIZ1 (11724087_x_at) / RFU OASL (11726364_x_at) / Fold change /veh OASL (11726364_x_at) / RFU SOX15 (11748057_x_at) / Fold change /veh SOX15 (11748057_x_at) / RFU CD79A (11719716_a_at) / Fold change /veh CD79A (11719716_a_at) / RFU HIST1H1D (11736915_at) / Fold change /veh HIST1H1D (11736915_at) / RFU CASKIN2 (11723855_a_at) / Fold change /veh CASKIN2 (11723855_a_at) / RFU LOC730098 (11760151_x_at) / Fold change /veh LOC730098 (11760151_x_at) / RFU OR4N2 (11742367_at) / Fold change /veh OR4N2 (11742367_at) / RFU PRRT2 (11749266_a_at) / Fold change /veh PRRT2 (11749266_a_at) / RFU SNX32 (11753110_a_at) / Fold change /veh SNX32 (11753110_a_at) / RFU CDHR5 (11726645_a_at) / Fold change /veh CDHR5 (11726645_a_at) / RFU RCAN1 (11760418_a_at) / Fold change /veh RCAN1 (11760418_a_at) / RFU FAM167A (11723789_a_at) / Fold change /veh FAM167A (11723789_a_at) / RFU FAM26E (11764081_at) / Fold change /veh FAM26E (11764081_at) / RFU ISYNA1 (11749810_s_at) / Fold change /veh ISYNA1 (11749810_s_at) / RFU ACY1 (11761880_at) / Fold change /veh ACY1 (11761880_at) / RFU 11764098_at / Fold change /veh 11764098_at / RFU SAMD14 (11745864_x_at) / Fold change /veh SAMD14 (11745864_x_at) / RFU NPB (11741838_a_at) / Fold change /veh NPB (11741838_a_at) / RFU TMPRSS6 (11731388_a_at) / Fold change /veh TMPRSS6 (11731388_a_at) / RFU KRTAP10-2 (11738614_at) / Fold change /veh KRTAP10-2 (11738614_at) / RFU ARHGAP8 /// PRR5-ARHGAP8 (11727945_x_at) / Fold change /veh ARHGAP8 /// PRR5-ARHGAP8 (11727945_x_at) / RFU KRTAP5-7 /// NADSYN1 (11734609_at) / Fold change /veh KRTAP5-7 /// NADSYN1 (11734609_at) / RFU RASL12 (11751679_a_at) / Fold change /veh RASL12 (11751679_a_at) / RFU CDKN2B (11736163_a_at) / Fold change /veh CDKN2B (11736163_a_at) / RFU PRF1 (11729649_at) / Fold change /veh PRF1 (11729649_at) / RFU, ZNF638 /// ZNF638-IT1 / Fold change vs veh, ZNF638 /// ZNF638-IT1 / RFU, PANK3 / Fold change vs veh, PANK3 / RFU, SH3YL1 / Fold change vs veh, SH3YL1 / RFU, ZEB2 / Fold change vs veh, ZEB2 / RFU, NRIP1 / Fold change vs veh, NRIP1 / RFU, PTTG1IP / Fold change vs veh, PTTG1IP / RFU, CAPN2 / Fold change vs veh, CAPN2 / RFU, MED14 / Fold change vs veh, MED14 / RFU, SNORA58 / Fold change vs veh, SNORA58 / RFU, C1orf63 / Fold change vs veh, C1orf63 / RFU, LRRFIP1 / Fold change vs veh, LRRFIP1 / RFU, NDUFAF7 / Fold change vs veh, NDUFAF7 / RFU, SLC12A2 / Fold change vs veh, SLC12A2 / RFU, IBTK / Fold change vs veh, IBTK / RFU, ESF1 / Fold change vs veh, ESF1 / Fold change vs veh, TMEM50B / RFU, TAOK1 / Fold change vs veh, TAOK1 / RFU, ACBD3 / Fold change vs veh, ACBD3 / RFU, TMA16 / Fold change vs veh, TMA16 / RFU, RWDD3 / Fold change vs veh, RWDD3 / RFU, BCAT1 / Fold change vs veh, BCAT1 / RFU, EDEM3 / Fold change vs veh, EDEM3 / RFU, TMEM33 / Fold change vs veh, TMEM33 / RFU, WDR75 / Fold change vs veh, WDR75 / RFU, AHCTF1 / Fold change vs veh, AHCTF1 / RFU, TFRC / Fold change vs veh, TFRC / RFU, ZDHHC17 / Fold change vs veh, ZDHHC17 / RFU, NOM1 / Fold change vs veh, NOM1 / RFU, ARL8B / Fold change vs veh, ARL8B / RFU, ZBTB11 / Fold change vs veh, ZBTB11 / RFU, TAMM41 / Fold change vs veh, TAMM41 / RFU, KIAA1704 /// LOC100996395 / Fold change vs veh, KIAA1704 /// LOC100996395 / RFU, ING1 / Fold change vs veh, ING1 / RFU, TRMT61B / Fold change vs veh, TRMT61B / RFU, FUBP3 / Fold change vs veh, FUBP3 / RFU, TP53 / Fold change vs veh, TP53 / RFU, TNKS2 / Fold change vs veh, TNKS2 / RFU, ZFP14 / Fold change vs veh, ZFP14 / RFU, ACTR2 / Fold change vs veh, ACTR2 / RFU, PPP3R1 / Fold change vs veh, PPP3R1 / RFU, PIK3R1 / Fold change vs veh, PIK3R1 / RFU, HNRNPA1 / Fold change vs veh, HNRNPA1 / RFU, RNF170 / Fold change vs veh, RNF170 / RFU, ZNF28 / Fold change vs veh, ZNF28 / RFU, RNGTT / Fold change vs veh, RNGTT / RFU, OGT / Fold change vs veh, OGT / RFU, BRD1 / Fold change vs veh, BRD1 / RFU, MARS / Fold change vs veh, MARS / RFU, ZNF655 / Fold change vs veh, ZNF655 / RFU, FAHD1 / Fold change vs veh, FAHD1 / RFU, BDP1 / Fold change vs veh, BDP1 / RFU, LRRCC1 / Fold change vs veh, LRRCC1 / RFU, ARID1A / Fold change vs veh, ARID1A / RFU, ZNF146 / Fold change vs veh, ZNF146 / RFU, ZNF330 / Fold change vs veh, ZNF330 / RFU, GPN3 / Fold change vs veh, GPN3 / RFU, C9orf123 / Fold change vs veh, C9orf123 / RFU, N4BP2L2 / Fold change vs veh, N4BP2L2 / RFU, ARFIP1 / Fold change vs veh, ARFIP1 / RFU, FAM179B / Fold change vs veh, FAM179B / RFU, BCL10 / Fold change vs veh, BCL10 / RFU, UHRF1BP1L / Fold change vs veh, UHRF1BP1L / RFU, BET1 / Fold change vs veh, BET1 / RFU, CNOT2 / Fold change vs veh, CNOT2 / RFU, ZNF268 / Fold change vs veh, ZNF268 / Fold change vs veh, ZNF507 / RFU, DGCR2 / Fold change vs veh, DGCR2 / RFU, WDSUB1 / Fold change vs veh, WDSUB1 / Fold change vs veh, HSP90B1 /// MIR3652 / RFU, ADSS / Fold change vs veh, ADSS / RFU, GK / Fold change vs veh, GK / RFU, ZNF148 / Fold change vs veh, ZNF148 / RFU, TAF9 / Fold change vs veh, TAF9 / RFU, SLC1A5 / Fold change vs veh, SLC1A5 / RFU, SLMO2 / Fold change vs veh, SLMO2 / RFU, ABCC4 / Fold change vs veh, ABCC4 / RFU, LOC101060439 /// RAP1B / Fold change vs veh, LOC101060439 /// RAP1B / RFU, RFX7 / Fold change vs veh, RFX7 / RFU, GTPBP10 / Fold change vs veh, GTPBP10 / RFU, CNEP1R1 / Fold change vs veh, CNEP1R1 / RFU, BIVM-ERCC5 /// ERCC5 / Fold change vs veh, BIVM-ERCC5 /// ERCC5 / RFU, ILF3 / Fold change vs veh, ILF3 / RFU 11762660_at / Fold change /veh 11762660_at / RFU VCAN (11757783_s_at) / Fold change /veh VCAN (11757783_s_at) / RFU DDX43 (11728927_at) / Fold change /veh DDX43 (11728927_at) / RFU KRT8 (11758188_x_at) / Fold change /veh KRT8 (11758188_x_at) / RFU NKD1 (11759106_at) / Fold change /veh NKD1 (11759106_at) / RFU SRD5A1 (11742802_a_at) / Fold change /veh SRD5A1 (11742802_a_at) / RFU TPSAB1 /// TPSB2 (11721975_s_at) / Fold change /veh TPSAB1 /// TPSB2 (11721975_s_at) / RFU GSTM3 (11746129_a_at) / Fold change /veh GSTM3 (11746129_a_at) / RFU IL23R (11737362_x_at) / Fold change /veh IL23R (11737362_x_at) / RFU TMEM51 (11727254_a_at) / Fold change /veh TMEM51 (11727254_a_at) / RFU PIWIL2 (11732686_x_at) / Fold change /veh PIWIL2 (11732686_x_at) / RFU ORM1 (11744905_x_at) / Fold change /veh ORM1 (11744905_x_at) / RFU CCDC152 (11743942_at) / Fold change /veh CCDC152 (11743942_at) / RFU ECM1 (11717891_a_at) / Fold change /veh ECM1 (11717891_a_at) / RFU IL23R (11748794_a_at) / Fold change /veh IL23R (11748794_a_at) / RFU TNFAIP8L3 (11732012_x_at) / Fold change /veh TNFAIP8L3 (11732012_x_at) / RFU MBOAT4 (11741988_at) / Fold change /veh MBOAT4 (11741988_at) / RFU 11764193_at / Fold change /veh 11764193_at / RFU TMEM53 (11763286_at) / Fold change /veh TMEM53 (11763286_at) / RFU MAGEB2 (11727129_at) / Fold change /veh MAGEB2 (11727129_at) / RFU TMEM200A (11744735_a_at) / Fold change /veh TMEM200A (11744735_a_at) / RFU CCDC152 (11751479_a_at) / Fold change /veh CCDC152 (11751479_a_at) / RFU FAM211A (11726209_a_at) / Fold change /veh FAM211A (11726209_a_at) / RFU RGS16 (11746705_a_at) / Fold change /veh RGS16 (11746705_a_at) / RFU VCAN (11755009_s_at) / Fold change /veh VCAN (11755009_s_at) / RFU RHOB (11743442_s_at) / Fold change /veh RHOB (11743442_s_at) / RFU RGS16 (11720943_a_at) / Fold change /veh RGS16 (11720943_a_at) / RFU RGS16 (11720944_at) / Fold change /veh RGS16 (11720944_at) / RFU, VPS4B / Fold change vs veh, VPS4B / RFU, CREB1 / Fold change vs veh, CREB1 / RFU, DNAJC13 / Fold change vs veh, DNAJC13 / RFU, GNAQ / Fold change vs veh, GNAQ / RFU, CDK5R1 / Fold change vs veh, CDK5R1 / RFU, ZRANB3 / Fold change vs veh, ZRANB3 / RFU, CUL4A / Fold change vs veh, CUL4A / RFU, CCNY / Fold change vs veh, CCNY / RFU, UFL1 / Fold change vs veh, UFL1 / RFU, COG3 / Fold change vs veh, COG3 / RFU, DIAPH2 / Fold change vs veh, DIAPH2 / RFU, SKA2 / Fold change vs veh, SKA2 / RFU, AFF3 / Fold change vs veh, AFF3 / RFU, LMF1 / Fold change vs veh, LMF1 / RFU, IPO11 / Fold change vs veh, IPO11 / RFU, DFFB / Fold change vs veh, DFFB / RFU, FOXP1 / Fold change vs veh, FOXP1 / RFU, CARD8 / Fold change vs veh, CARD8 / RFU, STRN3 / Fold change vs veh, STRN3 / RFU, ADK / Fold change vs veh, ADK / RFU, RASSF2 / Fold change vs veh, RASSF2 / RFU, WIPF1 / Fold change vs veh, WIPF1 / RFU, LARP1B / Fold change vs veh, LARP1B / RFU, RASA1 / Fold change vs veh, RASA1 / RFU, RB1 / Fold change vs veh, RB1 / RFU, PPFIA1 / Fold change vs veh, PPFIA1 / RFU, MAT2A / Fold change vs veh, MAT2A / RFU, CCT5 / Fold change vs veh, CCT5 / RFU, WDR92 / Fold change vs veh, WDR92 / RFU, CUX1 / Fold change vs veh, CUX1 / RFU, TTC7A / Fold change vs veh, TTC7A / RFU, TMEM135 / Fold change vs veh, TMEM135 / RFU, DEPTOR / Fold change vs veh, DEPTOR / RFU, CPM / Fold change vs veh, CPM / RFU, DNAJB6 / Fold change vs veh, DNAJB6 / RFU, CACNA2D3 / Fold change vs veh, CACNA2D3 / RFU, DTX4 / Fold change vs veh, DTX4 / RFU, TFCP2 / Fold change vs veh, TFCP2 / RFU, GMCL1 /// GMCL1P1 / Fold change vs veh, GMCL1 /// GMCL1P1 / RFU, AEBP2 / Fold change vs veh, AEBP2 / RFU, SNHG1 /// SNORD22 /// SNORD25 /// SNORD26 /// SNORD27 /// SNORD28 /// SNORD29 /// SNORD31 / Fold change vs veh, SNHG1 /// SNORD22 /// SNORD25 /// SNORD26 /// SNORD27 /// SNORD28 /// SNORD29 /// SNORD31 / Fold change (Aza/veh), C12orf56 (ProbeSet 11735607_a_at) / Fold change (ACY-1035/veh), C12orf56 (ProbeSet 11735607_a_at) / Fold change (Aza/veh), FGFR1OP (ProbeSet 11751329_s_at) / Fold change (ACY-1035/veh), FGFR1OP (ProbeSet 11751329_s_at) / Fold change (Aza/veh), VPS36 (ProbeSet 11739960_a_at) / Fold change (ACY-1035/veh), VPS36 (ProbeSet 11739960_a_at) / RFU SYPL1 (11715823_x_at) / Fold change /veh SYPL1 (11715823_x_at) / RFU IGFBP7 (11715501_s_at) / Fold change /veh IGFBP7 (11715501_s_at) / RFU REEP3 (11722064_at) / Fold change /veh REEP3 (11722064_at) / RFU IGLL1 (11728026_x_at) / Fold change /veh IGLL1 (11728026_x_at): dose or concentration left out as unconfirmed
Settings: ProbeSet 11719493_s_at; LIST B

**Q.** With `Nc1ccc(-c2cccs2)cc1NC(=O)c1ccc2c(c1)cc(C1CC1)n2CCN1CCOCC1` [ACY-1035] as the compound, how does the “RFU, TAF9” value read?
**A.** 511.51 RFU
